One assay addresses T1, RORγ-LBD (Homo sapiens, UniProt P51449).
T1 construct: made in house; host or cells: SF9 cells (baculovirus); used as diluted lysate
T1 sequence (P51449 269-508 limits assumed): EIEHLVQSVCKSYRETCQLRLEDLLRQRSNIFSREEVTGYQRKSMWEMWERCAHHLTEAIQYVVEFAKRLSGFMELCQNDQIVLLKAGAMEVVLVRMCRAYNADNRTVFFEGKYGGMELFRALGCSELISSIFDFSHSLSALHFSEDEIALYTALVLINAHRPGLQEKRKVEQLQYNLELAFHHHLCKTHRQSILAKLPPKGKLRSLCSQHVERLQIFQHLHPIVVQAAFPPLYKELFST
Nature of the assay: RORγ-Ligand Binding Domain (LBD) TR-FRET Assay. The conditions noted are these: RORγ-LBD TR-FRET. It counts as biochemical. The essentials:
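This TR-FRET coactivator assay pairs baculovirus-expressed His-RORγ-LBD (~3 nM final) with biotin-SRC1 LXXLL peptide at 200 nM final in pH 7.0 Tris/KCl/EDTA/DTT/BSA buffer.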
Background: Time-resolved FRET reads energy transfer from a long-lived donor to a nearby acceptor.

The target in a further assay is T2, Gal4-RORγ-LBD (Homo sapiens, UniProt P51449).
T2 construct: expressed in transfected cells
T2 sequence (P51449 269-508 limits assumed): T1 sequence (P51449 269-508 limits assumed)
The experiment in a line: Gal4-RORγ Luciferase Reporter Assay in HEK-293T Cells. It counts as cell-based. The conditions noted are these: HEK-293 cells, luciferase reporter, with ursolic acid. The gist of the method:
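HEK-293 cells were co-transfected with Gal4-RORγ-LBD and a Gal4-luciferase reporter, then exposed overnight at 37 °C to compounds with […] ursolic acid present (0.2% DMSO). Luminescence was read with One-Glo after 10 min at RT, untreated signal was set as 100, and Max Response was taken as the upper plateau of a 4-parameter logistic fit.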
(In general: A reporter such as luciferase makes a cellular process visible.)

Where only a bound is given, the exact number is not on record here.

For orientation: EC50 means the concentration that produces a half-maximal response. As to `C/C(=C\c1ccc2c(c1)N(S(=O)(=O)c1cccc(C(C)C)c1)C[C@H](CCC(=O)O)O2)c1c(F)cccc1Cl` [Example 86Q, (S,E)-3-(6-(2-(2-chloro-6-fluorophenyl)prop-1-en-1-yl)-4-((3-isopropylphenyl)sulfonyl)-3,4-dihydro-2H-benzo[b][1,4]oxazin-2-yl)propanoic acid], the EC50 at RORγ-LBD and at Gal4-RORγ-LBD was less than 0.5 µM throughout.

In the case of `COC(=O)CC[C@H]1CN(S(=O)(=O)c2cccc(C(C)C)c2)c2cc(/C=C(\C)c3c(F)cccc3Cl)ccc2O1` [Example 86R, (S,E)-methyl 3-(6-(2-(2-chloro-6-fluorophenyl)prop-1-en-1-yl)-4-((3-isopropylphenyl)sulfonyl)-3,4-dihydro-2H-benzo[b][1,4]oxazin-2-yl)propanoate], the EC50 on RORγ-LBD and at Gal4-RORγ-LBD was less than 0.5 µM in each case.

As for `C/C(=C\c1ccc2c(c1)N(S(=O)(=O)c1cccc(OC(F)(F)F)c1)C[C@H](CCC(=O)O)O2)c1c(F)cccc1Cl` [Example 86S, (S,E)-3-(6-(2-(2-chloro-6-fluorophenyl)prop-1-en-1-yl)-4-((3-(trifluoromethoxy)phenyl)-sulfonyl)-3,4-dihydro-2H-benzo[b][1,4]oxazin-2-yl)propanoic acid], the results for the EC50 on RORγ-LBD and on Gal4-RORγ-LBD were less than 0.5 µM and 0.5 to 5 µM, respectively.

With `COC(=O)CC[C@H]1CN(S(=O)(=O)c2cccc(OC(F)(F)F)c2)c2cc(/C=C(\C)c3c(F)cccc3Cl)ccc2O1` [Example 86T, (S,E)-methyl 3-(6-(2-(2-chloro-6-fluorophenyl)prop-1-en-1-yl)-4-((3-(trifluoromethoxy)phenyl)-sulfonyl)-3,4-dihydro-2H-benzo[b][1,4]oxazin-2-yl)propanoate], the concentration for a half-maximal effect (EC50) on RORγ-LBD was less than 0.5 µM; on Gal4-RORγ-LBD, 0.5 to 5 µM.

On to `C/C(=C\c1ccc2c(c1)N(S(=O)(=O)c1c(Cl)nc3sccn13)C[C@H](CCC(=O)O)O2)c1c(F)cccc1Cl` [Example 86U, (S,E)-3-(6-(2-(2-chloro-6-fluorophenyl)prop-1-en-1-yl)-4-((6-chloroimidazo[2,1-b]thiazol-5-yl)sulfonyl)-3,4-dihydro-2H-benzo[b][1,4]oxazin-2-yl)propanoic acid], for which the 50% effective concentration (EC50) is less than 0.5 µM at RORγ-LBD and 0.5 to 5 µM at Gal4-RORγ-LBD.

`COC(=O)CC[C@H]1CN(S(=O)(=O)c2c(Cl)nc3sccn23)c2cc(/C=C(\C)c3c(F)cccc3Cl)ccc2O1` [Example 86V, (S)-methyl 3-(6-(2-(2-chloro-6-fluorophenyl)prop-1-en-1-yl)-4-((6-chloroimidazo[2,1-b]thiazol-5-yl)sulfonyl)-3,4-dihydro-2H-benzo[b][1,4]oxazin-2-yl)propanoate]: the EC50 on RORγ-LBD was less than 0.5 µM; on Gal4-RORγ-LBD, 0.5 to 5 µM.

On to `C/C(=C\c1ccc2c(c1)N(S(=O)(=O)c1cn(C(F)F)nc1C)C[C@H](CCC(=O)O)O2)c1c(F)cccc1Cl` [Example 86W, (S,E)-3-(6-(2-(2-chloro-6-fluorophenyl)prop-1-en-1-yl)-4-((1-(difluoromethyl)-3-methyl-1H-pyrazol-4-yl)sulfonyl)-3,4-dihydro-2H-benzo[b][1,4]oxazin-2-yl)propanoic acid], for which the concentration for a half-maximal effect (EC50) on RORγ-LBD was less than 0.5 µM; at Gal4-RORγ-LBD, more than 10 µM.

Take `COC(=O)CC[C@H]1CN(S(=O)(=O)c2cn(C(F)F)nc2C)c2cc(/C=C(\C)c3c(F)cccc3Cl)ccc2O1` [Example 86X, (S)-methyl 3-(6-(2-(2-chloro-6-fluorophenyl)prop-1-en-1-yl)-4-((1-(difluoromethyl)-3-methyl-1H-pyrazol-4-yl)sulfonyl)-3,4-dihydro-2H-benzo[b][1,4]oxazin-2-yl)propanoate]: the concentration giving a half-maximal response (EC50) is less than 0.5 µM on RORγ-LBD and 0.5 to 5 µM at Gal4-RORγ-LBD.

As for `COC(=O)CC[C@H]1CN(S(=O)(=O)c2cccc(C(F)(F)F)c2)c2cc(/C=C(\C)c3ccccc3Cl)ccc2O1` [Example 86Z, (S,E)-methyl 3-(6-(2-(2-chlorophenyl)prop-1-en-1-yl)-4-((3-(trifluoromethyl)phenyl)-sulfonyl)-3,4-dihydro-2H-benzo[b][1,4]oxazin-2-yl)propanoate], the EC50 on RORγ-LBD and at Gal4-RORγ-LBD was less than 0.5 µM each time.

`CCOc1nn(CC)cc1S(=O)(=O)N1C[C@H](CCC(=O)OC)Oc2ccc(/C=C/c3c(F)cccc3C(F)(F)F)cc21` [Example 87, Methyl (S,E)-3-(4-((3-ethoxy-1-ethyl-1H-pyrazol-4-yl)sulfonyl)-6-(2-fluoro-6-(trifluoromethyl)styryl)-3,4-dihydro-2H-benzo[b][1,4]oxazin-2-yl)propanoate]: the EC50 is less than 0.5 µM on RORγ-LBD and 0.5 to 5 µM on Gal4-RORγ-LBD.

With `CCOc1nn(CC)cc1S(=O)(=O)N1C[C@H](CCC(=O)O)Oc2ccc(/C=C/c3c(F)cccc3C(F)(F)F)cc21` [Example 88, (S,E)-3-(4-((3-Ethoxy-1-ethyl-1H-pyrazol-4-yl)sulfonyl)-6-(2-fluoro-6-(trifluoromethyl)styryl)-3,4-dihydro-2H-benzo[b][1,4]oxazin-2-yl)propanoic acid], the EC50 is less than 0.5 µM on RORγ-LBD and 0.5 to 5 µM on Gal4-RORγ-LBD.

As to `O=C(O)CC[C@H]1CN(S(=O)(=O)c2cccc(OC(F)F)c2)c2cc(/C=C/c3c(F)cccc3Cl)ccc2O1` [Example 89A, (S,E)-3-(6-(2-chloro-6-fluorostyryl)-4-((3-(difluoromethoxy)phenyl)sulfonyl)-3,4-dihydro-2H-benzo[b][1,4]oxazin-2-yl)propanoic acid], the 50% effective concentration (EC50) is less than 0.5 µM at RORγ-LBD and 0.5 to 5 µM on Gal4-RORγ-LBD.

In the case of `CCOc1nn(CC)cc1S(=O)(=O)N1C[C@H](CCC(=O)O)Oc2ccc(/C=C/c3cccc(Cl)n3)cc21` [Example 89AA, (S,E)-3-(6-(2-(6-chloropyridin-2-yl)vinyl)-4-((3-ethoxy-1-ethyl-1H-pyrazol-4-yl)sulfonyl)-3,4-dihydro-2H-benzo[b][1,4]oxazin-2-yl)propanoic acid], the EC50 at RORγ-LBD was 0.5 to 5 µM; on Gal4-RORγ-LBD, more than 10 µM.

As to `CCOc1nn(CC)cc1S(=O)(=O)N1C[C@H](CCC(=O)OC)Oc2ccc(/C=C/c3cccc(Cl)n3)cc21` [Example 89AB, (S,E)-methyl 3-(6-(2-(6-chloropyridin-2-yl)vinyl)-4-((3ethoxy-1-ethyl-1H-pyrazol-4-yl)sulfonyl)-3,4-dihydro-2H-benzo[b][1,4]oxazin-2-yl)propanoate], the half-maximal effective concentration (EC50) on RORγ-LBD was 0.5 to 5 µM; at Gal4-RORγ-LBD it was more than 10 µM.

For `Cc1cccc(C)c1/C=C/c1ccc2c(c1)N(S(=O)(=O)c1cccc(OC(F)F)c1)C[C@H](CCC(=O)O)O2` [Example 89AC, (S,E)-3-(4-((3-(difluoromethoxy)phenyl)sulfonyl)-6-(2,6-dimethylstyryl)-3,4-dihydro-2H-benzo[b][1,4]-oxazin-2-yl)propanoic acid], the results for the EC50 at RORγ-LBD and on Gal4-RORγ-LBD were less than 0.5 µM and 0.5 to 5 µM, respectively.

Take `CCOc1nn(CC)cc1S(=O)(=O)N1C[C@H](CCC(=O)O)Oc2ccc(/C=C/c3c(F)cccc3F)cc21` [Example 89AE, (S,E)-3-(6-(2,6-difluorostyryl)-4-((3-ethoxy-1-ethyl-1H-pyrazol-4-yl)sulfonyl)-3,4-dihydro-2H-benzo[b][1,4]-oxazin-2-yl)propanoic acid]: the concentration for a half-maximal effect (EC50) on RORγ-LBD was less than 0.5 µM; at Gal4-RORγ-LBD, 0.5 to 5 µM.

With `CCOc1nn(CC)cc1S(=O)(=O)N1C[C@H](CCC(=O)OC)Oc2ccc(/C=C/c3c(F)cccc3F)cc21` [Example 89AF, (S,E)-methyl 3-(6-(2,6-difluorostyryl)-4-((3-ethoxy-1-ethyl-1H-pyrazol-4-yl)sulfonyl)-3,4-dihydro-2H-benzo[b][1,4]oxazin-2-yl)propanoate], the 50% effective concentration (EC50) on RORγ-LBD was less than 0.5 µM; on Gal4-RORγ-LBD, more than 10 µM.

On to `CCOc1nn(CC)cc1S(=O)(=O)N1C[C@H](CCC(=O)O)Oc2ccc(/C=C/c3c(C)cccc3F)cc21` [Example 89AG, (S,E)-3-(4-((3-ethoxy-1-ethyl-1H-pyrazol-4-yl)sulfonyl)-6-(2-fluoro-6-methylstyryl)-3,4-dihydro-2H-benzo[b][1,4]-oxazin-2-yl)propanoic acid], for which the EC50 at RORγ-LBD and at Gal4-RORγ-LBD was less than 0.5 µM each time.

As for `CCOc1nn(CC)cc1S(=O)(=O)N1C[C@H](CCC(=O)OC)Oc2ccc(/C=C/c3c(C)cccc3F)cc21` [Example 89AH, (S,E)-methyl 3-(4-((3-ethoxy-1-ethyl-1H-pyrazol-4-yl)sulfonyl)-6-(2-fluoro-6-methylstyryl)-3,4-dihydro-2H-benzo[b][1,4]-oxazin-2-yl)propanoate], the EC50 on RORγ-LBD and on Gal4-RORγ-LBD was less than 0.5 µM each time.

Turning to `O=C(O)CC[C@H]1CN(S(=O)(=O)c2cccc(OC(F)F)c2)c2cc(/C=C/c3c(F)cccc3C(F)(F)F)ccc2O1` [Example 89AI, (S,E)-3-(4-((3-(difluoromethoxy)phenyl)sulfonyl)-6-(2-fluoro-6-(trifluoromethyl)-styryl)-3,4-dihydro-2H-benzo[b][1,4]oxazin-2-yl)propanoic acid], the EC50 is less than 0.5 µM on RORγ-LBD and 0.5 to 5 µM on Gal4-RORγ-LBD.

`COC(=O)CC[C@H]1CN(S(=O)(=O)c2cccc(OC(F)F)c2)c2cc(/C=C/c3c(F)cccc3C(F)(F)F)ccc2O1` [Example 89AJ, (S,E)-methyl 3-(4-((3-(difluoromethoxy)phenyl)sulfonyl)-6-(2-fluoro-6-(trifluoromethyl)-styryl)-3,4-dihydro-2H-benzo[b][1,4]oxazin-2-yl)propanoate]: the EC50 at RORγ-LBD is less than 0.5 µM; at Gal4-RORγ-LBD, 0.5 to 5 µM.

For the origin of these results see patent US9896441B2 (Lycera Corporation, priority 2014, dated 2018).
